Measured values from patent US4963581A, “Naphthopyran derivatives and use thereof” (Takeda Chemical Industries, Ltd., priority 1988, dated 1990).

What was measured:
[1] = test system: estrogen synthesis; assay: Estrogen synthesis inhibition in rats (PMSG-stimulated); assay type: in vivo, young SD rats; conditions: 4 days, Mean ± SD
Method: Groups of five young SD rats ([…], 19 days old) were used. Test groups were administered subcutaneously with the test compounds suspended in 0.2% gum arabic-containing physiological saline in a dose of 25 mg/kg or 50 mg/kg at 24-hour intervals for consecutive 4 days. Non-test groups (control groups […]) were administered with 0.2 ml of 0.2% gum arabic-containing physiological saline. On the third day after initiation of the test, a single dose of pregnant mare serum gonadotropin (PMSG) was administered subcutaneously in a dose of 10 U/rat to the test groups and to the control group 2, following the administration of the test compounds. […] The plasma samples thus obtained were subjected to plasma estradiol-17B level determination by radioimmunoassay. The uterus and ovaries were excised from each rat and, after removal of superfluous connective tissues, weighed. The results thus obtained are shown in Table 2.4-Hydroxyandrostenedione (4-OHA) was used as a reference compound for the pharmacological effect evaluation.
*P < 0.05, **P < 0.02, ***P < 0.01, ****<0.001 against PMSG group

[2] = target: T1, Human placental aromatase (Homo sapiens, UniProt P11511); assay: In vitro human placental aromatase inhibiting activity; assay type: biochemical; conditions: substrate androstenedione 4 μM, 37° C., 1 hour
T1 construct: the pellet thus obtained was used as a microsome fraction; from tissue; host or cells: human placenta, microsome fraction
T1 sequence (P11511 1-503): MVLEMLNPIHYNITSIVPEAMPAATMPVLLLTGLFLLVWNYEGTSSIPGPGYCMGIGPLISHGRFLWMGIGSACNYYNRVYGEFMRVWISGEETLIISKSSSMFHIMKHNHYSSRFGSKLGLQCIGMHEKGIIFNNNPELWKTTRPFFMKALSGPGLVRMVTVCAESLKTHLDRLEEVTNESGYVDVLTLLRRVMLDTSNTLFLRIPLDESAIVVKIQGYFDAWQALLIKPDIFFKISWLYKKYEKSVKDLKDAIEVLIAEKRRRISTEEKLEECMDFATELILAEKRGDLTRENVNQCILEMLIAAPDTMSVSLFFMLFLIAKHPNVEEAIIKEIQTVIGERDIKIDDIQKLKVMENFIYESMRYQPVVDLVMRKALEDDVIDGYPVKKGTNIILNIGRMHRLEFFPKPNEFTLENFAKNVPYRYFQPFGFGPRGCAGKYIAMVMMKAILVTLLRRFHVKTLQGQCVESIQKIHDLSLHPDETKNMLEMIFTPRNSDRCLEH
Method: Preparation of human placental microsome:
The method of F. A. Thompson et al. [Journal of Biological Chemistry, 249, 5364 (1974)]was partly modified. Thus, a placenta was washed with cooled 0.15 M KCl and, after removal of adhering membranes and great blood vessels, minced to sufficiently small pieces by means of scissors. To the minced tissue was added cold 0.02 M phosphate buffer (pH 7.4) containing 0.25 M sucrose in an amount of 1 ml per 1 g of tissue, the mixture was homogenized with a Polytron homogenizer (30 seconds, three times, in ice) and then centrifuged at 800×g for 10 minutes, the supernatant was subjected to centrifugation at 20,000×g for 30 minutes, followed by further centrifugation at 148,000×g for 45 minutes, and the pellet thus obtained was used as a microsome fraction. The microsome obtained was suspended in the same phosphate buffer as mentioned above in a concentration corresponding to 10 g of wet placenta per ml. The suspension was stored at -80° C. and, just prior to use, diluted 5 to 6 times.
Aromatase activity measurement and inhibitory activity:
The method of F. A. Thompson et al. (vide supra) was partly modified as follows:
A reaction solution ([…]) containing 4 μM 4-androstene-3,17-dione, 140,000 dpm, 1,2[^3 H]-androstenedione, 550 μM NADPH, 20 μl of the above microsome and 5 μl of buffer or 5 μl of an inhibitor-containing solution was incubated at 37° C. for 1 hour. In this measurement system, aromatization of androstenedione gives [^3 H]--H2 O. Therefore, this reaction mixture was extracted with 0.5 ml of chloroform for separation, the aqueous layer obtained was treated with 0.25 ml of 5% active carbon for removal of free steriods and then subjected to low speed centrifugation. A scintillator (3 ml) was added to 0.2 ml of the supernatant, and the radioactivity was measured by means of a liquid scintillation counter. The percent inhibition (%) was determined by comparing the result thus obtained with the result for a control sample as obtained without adding any inhibitor. The activity was expressed in terms of IC50 (μg/ml), namely the inhibitor concentration required for 50% inhibition of the enzyme activity at the substrate (androstenedione) concentration of 4 μM.

[3] = test system: estrogen synthesis; assay: Estrogen synthesis inhibition in rats (PMSG-stimulated); assay type: in vivo, young SD rats; conditions: Test I, 100 mg/kg/day s.c., 4 days, Mean ± SD
[4] = test system: various enzymes involved in the biosynthesis of steroid hormones; conditions: background statement in words; cited from earlier work
[5] = Test II, 25 mg/kg/day s.c., PMSG control 240.0 ± 34.9
[6] = Test II, 50 mg/kg/day s.c., PMSG control 240.0 ± 34.9
[7] = Test I, 25 mg/kg/day s.c., PMSG control 568.6 ± 69.7
[8] = Test I, 50 mg/kg/day s.c., PMSG control 568.6 ± 69.7

CC1Cc2cc3c(c(O)c2C(=O)O1)C(=O)C(C1=C(O)C(=O)c2cc4c(c(O)c2C1=O)C(=O)OC(C)C4)=C(O)C3=O (stereo not shown) [Compound 3, luteosporin]
Tissue weight, Ovaries ([1]; Test II, 25 mg/kg/day s.c.): 21.3 ± 4.4 mg | Tissue weight, Uterus ([1]; Test II, 25 mg/kg/day s.c.): 93.6 ± 22.4 mg | Plasma estradiol-17β level [1, 5]: 124.1 ± 53.3 pg/mL | Tissue weight, Ovaries ([1]; Test II, 50 mg/kg/day s.c.): 22.6 ± 5.4 mg | Tissue weight, Uterus ([1]; Test II, 50 mg/kg/day s.c.): 115.4 ± 30.4 mg | Plasma estradiol-17β level [1, 6]: 71.1 ± 23.4 pg/mL | IC50 [2]: 134 µM

CNC1=C(C2=C(NC)C(=O)c3cc4c(c(O)c3C2=O)C(=O)OC(C)C4)C(=O)c2c(cc3c(c2O)C(=O)OC(C)C3)C1=O (stereo not shown) [Compound 12]
IC50 [2]: 10.5 µM

CCOC1=C(C2=C(OCC)C(=O)c3cc4c(c(O)c3C2=O)C(=O)OC(C)C4)C(=O)c2c(cc3c(c2O)C(=O)OC(C)C3)C1=O (stereo not shown) [Compound 9]
IC50 [2]: 40.7 µM

COc1cc2cc3c(c(O)c2c(O)c1C1=C(N)C(=O)c2cc4c(c(O)c2C1=O)C(=O)OC(C)C4)C(=O)OC(C)C3 (stereo not shown) [Compound 7]
Tissue weight, Ovaries ([1]; Test I, 25 mg/kg/day s.c.): 31.2 ± 8.5 mg | Tissue weight, Uterus ([1]; Test I, 25 mg/kg/day s.c.): 94.1 ± 5.5 mg | Plasma estradiol-17β level [1, 7]: 323.4 ± 161.2 pg/mL | Tissue weight, Ovaries ([1]; Test I, 50 mg/kg/day s.c.): 27.7 ± 2.7 mg | Tissue weight, Uterus ([1]; Test I, 50 mg/kg/day s.c.): 110.0 ± 14.9 mg | Plasma estradiol-17β level [1, 8]: 206.3 ± 54.8 pg/mL | IC50 [2]: 50.4 µM

COC1=C(c2c(OC)cc3cc4c(c(O)c3c2O)C(=O)OC(C)C4)C(=O)c2c(cc3c(c2O)C(=O)OC(C)C3)C1=O (stereo not shown) [Compound 5, viomellein]
Body weight gain ([1]; Test II, 25 mg/kg/day s.c.): 22.8 ± 1.8 g | Tissue weight, Ovaries ([1]; Test II, 25 mg/kg/day s.c.): 25.3 ± 4.9 mg | Tissue weight, Uterus ([1]; Test II, 25 mg/kg/day s.c.): 104.6 ± 16.6 mg | Plasma estradiol-17β level [1, 5]: 60.5 ± 51.1 pg/mL | Body weight gain ([1]; Test II, 50 mg/kg/day s.c.): 22.0 ± 1.2 g | Tissue weight, Ovaries ([1]; Test II, 50 mg/kg/day s.c.): 21.0 ± 2.5 mg | Tissue weight, Uterus ([1]; Test II, 50 mg/kg/day s.c.): 97.7 ± 16.0 mg | Plasma estradiol-17β level [1, 6]: 63.8 ± 24.3 pg/mL | IC50 [2]: 130 µM

COC1=C(C2=C(OC)C(=O)c3cc4c(c(O)c3C2=O)C(=O)OC(C)C4)C(=O)c2c(cc3c(c2O)C(=O)OC(C)C3)C1=O (stereo not shown) [Compound 1, xanthomegnin]
Body weight gain ([1]; Test I, 25 mg/kg/day s.c.): 22.4 ± 3.1 g | Tissue weight, Ovaries ([1]; Test I, 25 mg/kg/day s.c.): 23.7 ± 3.4 mg | Tissue weight, Uterus ([1]; Test I, 25 mg/kg/day s.c.): 88.9 ± 9.0 mg | Plasma estradiol-17β level [1, 7]: 204.7 ± 67.0 pg/mL | Body weight gain ([1]; Test I, 50 mg/kg/day s.c.): 21.4 ± 2.7 g | Tissue weight, Ovaries ([1]; Test I, 50 mg/kg/day s.c.): 25.5 ± 5.5 mg | Tissue weight, Uterus ([1]; Test I, 50 mg/kg/day s.c.): 91.9 ± 14.4 mg | Plasma estradiol-17β level [1, 8]: 250.9 ± 161.1 pg/mL | IC50 [2]: 8.18 µM

COC1=C(C2=C(O)C(=O)c3cc4c(c(O)c3C2=O)C(=O)OC(C)C4)C(=O)c2c(cc3c(c2O)C(=O)OC(C)C3)C1=O (stereo not shown) [Compound 2, monodemethylxanthomegnin]
Tissue weight, Ovaries ([1]; Test III, 25 mg/kg/day s.c.): 29.4 ± 7.5 mg | Tissue weight, Uterus ([1]; Test III, 25 mg/kg/day s.c.): 115.7 ± 14.0 mg | Plasma estradiol-17β level ([1]; Test III, 25 mg/kg/day s.c., PMSG control 327.9 ± 126.6): 189.5 ± 123.4 pg/mL | Tissue weight, Ovaries ([1]; Test III, 50 mg/kg/day s.c.): 29.0 ± 2.5 mg | Tissue weight, Uterus ([1]; Test III, 50 mg/kg/day s.c.): 106.3 ± 14.0 mg | Plasma estradiol-17β level ([1]; Test III, 50 mg/kg/day s.c., PMSG control 327.9 ± 126.6): 195.1 ± 79.3 pg/mL | IC50 [2]: 24.1 µM

CNC1=C(C2=C(NC)C(=O)c3cc4c(c(O)c3C2=O)C(=O)OC(C)C4)C(=O)c2c(cc3c(c2O)C(=O)OC(C)C3)C1=O (stereo not shown) [Compound 11]
IC50 [2]: 437 µM

CCOC1=C(C2=C(O)C(=O)c3cc4c(c(O)c3C2=O)C(=O)OC(C)C4)C(=O)c2c(cc3c(c2O)C(=O)OC(C)C3)C1=O (stereo not shown) [Compound 10]
IC50 [2]: 51.2 µM

C[C@]12CCC(=O)C(O)=C1CC[C@@H]1[C@@H]2CC[C@]2(C)C(=O)CC[C@@H]12 [Compound 4-OHA, 4-Hydroxyandrostenedione, reference compound]
Tissue weight, Ovaries ([1]; Test I, 100 mg/kg/day s.c.): 24.3 ± 4.5 mg | Tissue weight, Uterus ([1]; Test I, 100 mg/kg/day s.c.): 60.6 ± 9.0 mg | Plasma estradiol-17β level ([1]; Test I, 100 mg/kg/day s.c., PMSG control 568.6 ± 69.7): 115.5 ± 47.4 pg/mL | Body weight gain ([1]; Test II, 100 mg/kg/day s.c.): 22.8 ± 1.5 g | Tissue weight, Ovaries ([1]; Test II, 100 mg/kg/day s.c.): 22.3 ± 3.3 mg | Tissue weight, Uterus ([1]; Test II, 100 mg/kg/day s.c.): 61.5 ± 8.2 mg | Plasma estradiol-17β level ([1]; Test II, 100 mg/kg/day s.c., PMSG control 240.0 ± 34.9): 36.1 ± 33.0 pg/mL | Body weight gain ([1]; Test III, 100 mg/kg/day s.c.): 24.8 ± 0.8 g | Tissue weight, Ovaries ([1]; Test III, 100 mg/kg/day s.c.): 26.3 ± 1.7 mg | Tissue weight, Uterus ([1]; Test III, 100 mg/kg/day s.c.): 71.9 ± 8.6 mg | Plasma estradiol-17β level ([1]; Test III, 100 mg/kg/day s.c., PMSG control 327.9 ± 126.6): 52.3 ± 21.7 pg/mL | Body weight gain [3]: 25.0 ± 1.6 g

CCC1(c2ccc(N)cc2)CCC(=O)NC1=O (stereo not shown) [Aminoglutethimide]
inhibition of various enzymes involved in the biosynthesis of steroid hormones [4]: inhibits various enzymes involved in the biosynthesis of steroid hormones

CC1Cc2cc3c(c(O)c2C(=O)O1)C(=O)C(C1=C(O)C(=O)c2cc4c(c(O)c2C1=O)C(=O)OC(C)C4)=C(N)C3=O (stereo not shown) [Compound 4, plastatin]
Tissue weight, Ovaries ([1]; Test II, 25 mg/kg/day s.c.): 20.8 ± 3.9 mg | Tissue weight, Uterus ([1]; Test II, 25 mg/kg/day s.c.): 97.4 ± 17.8 mg | Plasma estradiol-17β level [1, 5]: 156.0 ± 47.8 pg/mL | Tissue weight, Ovaries ([1]; Test II, 50 mg/kg/day s.c.): 26.8 ± 4.8 mg | Tissue weight, Uterus ([1]; Test II, 50 mg/kg/day s.c.): 86.6 ± 9.6 mg | Plasma estradiol-17β level [1, 6]: 190.3 ± 19.9 pg/mL | IC50 [2]: 30.2 µM

COC1=C(C2=C(OC)C(=O)c3cc4c(c(OC)c3C2=O)C(=O)OC(C)C4)C(=O)c2c(cc3c(c2OC)C(=O)OC(C)C3)C1=O (stereo not shown) [Compound 13]
IC50 [2]: 16.9 µM

COC1=CC(=O)c2c(cc3c(c2O)C(=O)OC(C)C3)C1=O (stereo not shown) [Compound 14]
IC50 [2]: 2.78 µM

CC1Cc2cc3c(c(O)c2C(=O)O1)C(=O)C(C1=C(N)C(=O)c2cc4c(c(O)c2C1=O)C(=O)OC(C)C4)=C(N)C3=O (stereo not shown) [Compound 6]
Tissue weight, Ovaries ([1]; Test I, 25 mg/kg/day s.c.): 32.2 ± 7.0 mg | Tissue weight, Uterus ([1]; Test I, 25 mg/kg/day s.c.): 102.2 ± 15.5 mg | Plasma estradiol-17β level [1, 7]: 353.2 ± 48.4 pg/mL | Tissue weight, Ovaries ([1]; Test I, 50 mg/kg/day s.c.): 32.0 ± 2.9 mg | Tissue weight, Uterus ([1]; Test I, 50 mg/kg/day s.c.): 103.1 ± 11.6 mg | Plasma estradiol-17β level [1, 8]: 326.0 ± 115.1 pg/mL | IC50 [2]: 7.16 µM

CCOC1=C(C2=C(OC)C(=O)c3cc4c(c(O)c3C2=O)C(=O)OC(C)C4)C(=O)c2c(cc3c(c2O)C(=O)OC(C)C3)C1=O (stereo not shown) [Compound 8]
IC50 [2]: 28.7 µM
